In one test the target is PRMT5 (Homo sapiens, UniProt O14744). The note with it: cited from earlier work.
Test [1] relates to chromatin-associated SUMOylation on the p73 promoter. The test is described as follows: ChIP with anti-SUMO2/3 antibody on the p73 promoter. Format: cell-based. The following applies: 5 μM, 72 h; U2OS cells; FIG. 6A. The procedure:
A) U2OS cells were treated with 5 μM PRMT5 inhibitor (P5 inh) for 72 h where indicated, prior to ChIP analysis with anti-SUMO2/3 specific or control antibodies. Immunoprecipitated chromatin was analysed using primers specific for the E2F site in the p73 promoter (i). An RT-PCR was also performed to monitor the levels of p73 transcripts in the cell (ii). […] See also FIGS. 10F and 10G. ChIP was performed as described previously [(29) or (30)]. Antibodies used for immunoprecipitation were as follows: anti-E2F1 (C-20), anti-HA (16B12), anti-HP1α (NB110-40623, Novus Biologicals; RRID: AB_714949), anti-SUMO2/3 (8A2; Abcam; RRID: AB_1658424), non-specific rabbit or mouse IgG. The recovered DNA was analysed in triplicate by real-time QPCR as described (30, 31) on a MX3005P QPCR system using Brilliant III SYBR Green QPCR Master Mix according to the manufacturer's instructions. Results were expressed as average (mean) fold change compared to IgG control treatments using the ΔΔCt method from triplicate biological repeat samples. Alternatively, a standard curve was generated to calculate ChIP/input signals that were subsequently used to generate fold change values compared to IgG control. Error bars represent standard error unless otherwise indicated.

Test [2] has as its system interaction between E2F1 and SENP7 V5 RNA. Kind of test: Anti-E2F1 RIP, co-immunoprecipitating SENP7 V5 transcripts by qRT-PCR. It is filed as cell-based. The following applies: 5 μM; HCT116 cells; FIG. 4C. The procedure: C) HCT116 cells were treated with 5 μM PRMT5 inhibitor (P5 inh) where indicated prior to performing an anti-E2F1 RIP. Co-immunoprecipitating SENP7 V5 transcripts were analysed by qRT-PCR.
RNA was isolated from cells using TRIzol (Thermo Fisher) according to the manufacturer's instructions. 1 μg of total RNA was used for cDNA synthesis. For standard mRNA analysis oligo(d)T20 (Invitrogen) was added. For splice variant analysis, RNA was DNAse treated (Sigma-Aldrich) prior to cDNA synthesis using random hexamers (Invitrogen). M-MLV reverse transcriptase (Promega) was used as per the manufacturer's instructions. qRT-PCR was carried out in triplicate using the indicated primer pairs and Brilliant III SYBR Green QPCR Master Mix (Stratagene) on an MX3005P (Agilent) QPCR instrument. Results were expressed as average (mean) fold change compared to control treatments using the ΔΔCt method from three biological repeat samples. GAPDH or actin primer sets were used as an internal calibrator. Error bars represent standard error unless otherwise indicated.
Cells were washed once with PBS before UV cross-linking at 900 mJ/cm^2 using a Stratalinker (Stratagene). RIP lysis buffer (50 mM Tris-HCl pH 8.0, 150 mM NaCl, 1 mM MgCl2, 10% glycerol [v/v], 1% NP-40 [v/v], 1 mM DTT, 0.2 mM sodium orthovanadate and protease inhibitor cocktails) was added directly to the plate, on ice. […]
For orientation: Quantitative PCR measures a nucleic acid by following its amplification.

Test [3] has as its system interaction of snRNA with E2F1. Kind of test: Anti-E2F1 RNA immunoprecipitation (RIP), co-immunoprecipitating snRNA by qRT-PCR. The following applies: 5 μM PRMT5 inhibitor; U2OS, HCT116 and MCF7 cells; FIGS. 3B, E and F. Format: cell-based. Here is the method:
B) U2OS cells were treated with 5 μM PRMT5 inhibitor (P5 inh) as indicated, prior to performing an anti-E2F1 RIP. Co-immunoprecipitating U6 (i) and U4 (ii) snRNAs were identified with specific primers by qRT-PCR. Input protein levels were determined by immunoblot (iii). n=3
E) HCT116 cells were treated with 5 μM PRMT5 inhibitor (P5 inh) where indicated, prior to performing an anti-E2F1 RIP. Co-immunoprecipitated U1 (i) and U6 (ii) snRNA were detected by qRT-PCR.
F) As above, though the experiment was performed in MCF7 cells.
A) U2OS cells (i) and HCT116 cells (ii) were transfected for 96 h with 25 nM non-targeting (siNT) or p100/TSN specific siRNA, prior to lysis in RIP buffer. Cell extracts were immunoprecipitated with E2F1 antibody and co-immunoprecipitating RNA was reverse transcribed prior to QPCR analysis with primers against U5 (i) and U6 (ii) snRNAs as indicated. Input protein levels were determined by immunoblot.
RNA was isolated from cells using TRIzol (Thermo Fisher) according to the manufacturer's instructions. 1 μg of total RNA was used for cDNA synthesis. For standard mRNA analysis oligo(d)T20 (Invitrogen) was added. […] Results were expressed as average (mean) fold change compared to control treatments using the ΔΔCt method from three biological repeat samples. […]

Another test concerns p73 transcripts. The test is described as follows: RT-PCR of p73 transcripts in treated cells. Format: cell-based. The note with it: 5 μM; U2OS and HCT116 cells; FIG. 6A, FIGS. 10F and G. The procedure: A) U2OS cells were treated with 5 μM PRMT5 inhibitor (P5 inh) for 72 h where indicated, prior to ChIP analysis with anti-SUMO2/3 specific or control antibodies. Immunoprecipitated chromatin was analysed using primers specific for the E2F site in the p73 promoter (i). An RT-PCR was also performed to monitor the levels of p73 transcripts in the cell (ii). […] See also FIGS. 10F and 10G. F) U2OS cells were treated with 5 μM PRMT5 inhibitor (P5 inh) as indicated, prior to RNA extraction and qRT-PCR analysis with primers recognising total p73 or CDC6 transcripts as indicated (i). […] 1 μg of total RNA was used for cDNA synthesis. For standard mRNA analysis oligo(d)T20 (Invitrogen) was added. For splice variant analysis, RNA was DNAse treated (Sigma-Aldrich) prior to cDNA synthesis using random hexamers (Invitrogen). M-MLV reverse transcriptase (Promega) was used as per the manufacturer's instructions. qRT-PCR was carried out in triplicate using the indicated primer pairs and Brilliant III SYBR Green QPCR Master Mix (Stratagene) on an MX3005P (Agilent) QPCR instrument. Results were expressed as average (mean) fold change compared to control treatments using the ΔΔCt method from three biological repeat samples. GAPDH or actin primer sets were used as an internal calibrator. Error bars represent standard error unless otherwise indicated.

In the next test the test system is Mantle Cell Lymphoma. The note with it: in vitro and in vivo models of Mantle Cell Lymphoma; cited from earlier work.
Another test concerns SENP7 RNA variants. Kind of test: qRT-PCR of SENP7 transcript variants in treated cells. It is filed as cell-based. The following applies: 5 μM, 72 h; U2OS and HCT116 cells; FIGS. 4D and 4E. The procedure:
D) U2OS cells were treated for 72 h with 5 μM PRMT5 inhibitor (P5 inh). RNA was then isolated from cells and analysed by qRT-PCR using primers targeting specific SENP7 transcript variants or total SENP7 RNA. […] E) As above, though the experiment was performed in HCT116 cells. n=4 RNA was isolated from cells using TRIzol (Thermo Fisher) according to the manufacturer's instructions. 1 μg of total RNA was used for cDNA synthesis. For standard mRNA analysis oligo(d)T20 (Invitrogen) was added. For splice variant analysis, RNA was DNAse treated (Sigma-Aldrich) prior to cDNA synthesis using random hexamers (Invitrogen). M-MLV reverse transcriptase (Promega) was used as per the manufacturer's instructions. qRT-PCR was carried out in triplicate using the indicated primer pairs and Brilliant III SYBR Green QPCR Master Mix (Stratagene) on an MX3005P (Agilent) QPCR instrument. Results were expressed as average (mean) fold change compared to control treatments using the ΔΔCt method from three biological repeat samples. GAPDH or actin primer sets were used as an internal calibrator. Error bars represent standard error unless otherwise indicated.

Test [4] deals with chromatin-associated HP1a. The test is described as follows: ChIP with anti-HP1a antibody on the p73 promoter. It is filed as cell-based. The note with it: PRMT5 inhibitor 24 h or 48 h; U2OS cells; FIG. 6B. The procedure:
B) As above, though cells were treated with the PRMT5 inhibitor (P5 inh) for 24 h or 48 h as indicated. ChIP analysis was performed with anti-HP1a specific or control antibodies (i).
C) U2OS cells were transfected with SENP7 siRNA or non-targeting siRNA (siNT) for 96 h as indicated. Cells were then prepared for ChIP analysis as above (i).
ChIP was performed as described previously [(29) or (30)]. Antibodies used for immunoprecipitation were as follows: anti-E2F1 (C-20), anti-HA (16B12), anti-HP1α (NB110-40623, Novus Biologicals; RRID: AB_714949), anti-SUMO2/3 (8A2; Abcam; RRID: AB_1658424), non-specific rabbit or mouse IgG. The recovered DNA was analysed in triplicate by real-time QPCR as described (30, 31) on a MX3005P QPCR system using Brilliant III SYBR Green QPCR Master Mix according to the manufacturer's instructions. Results were expressed as average (mean) fold change compared to IgG control treatments using the ΔΔCt method from triplicate biological repeat samples. Alternatively, a standard curve was generated to calculate ChIP/input signals that were subsequently used to generate fold change values compared to IgG control. Error bars represent standard error unless otherwise indicated.

Molecules are shown by their SMILES. “Also recorded” adds a separate entry of the source.

Chain of PRMT5 (O14744 whole entry): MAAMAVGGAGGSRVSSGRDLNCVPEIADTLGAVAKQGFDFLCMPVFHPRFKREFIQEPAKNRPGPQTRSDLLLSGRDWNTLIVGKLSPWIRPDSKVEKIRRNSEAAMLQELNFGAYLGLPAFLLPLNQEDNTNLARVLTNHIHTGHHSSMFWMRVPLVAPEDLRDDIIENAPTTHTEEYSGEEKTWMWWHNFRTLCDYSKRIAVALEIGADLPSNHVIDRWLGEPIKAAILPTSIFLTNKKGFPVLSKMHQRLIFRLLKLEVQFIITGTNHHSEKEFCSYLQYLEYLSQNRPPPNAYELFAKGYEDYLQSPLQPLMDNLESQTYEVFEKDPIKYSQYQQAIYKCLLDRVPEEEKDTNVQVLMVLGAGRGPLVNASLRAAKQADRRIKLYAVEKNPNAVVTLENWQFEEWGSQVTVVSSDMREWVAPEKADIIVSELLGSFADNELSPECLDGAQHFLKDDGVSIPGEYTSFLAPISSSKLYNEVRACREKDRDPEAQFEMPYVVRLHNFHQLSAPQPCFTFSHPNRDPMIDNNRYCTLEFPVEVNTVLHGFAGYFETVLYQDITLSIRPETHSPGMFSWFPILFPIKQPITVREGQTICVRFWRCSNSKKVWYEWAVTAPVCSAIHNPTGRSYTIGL
Chain of PRMT5 (Q9BQA1 whole entry partner): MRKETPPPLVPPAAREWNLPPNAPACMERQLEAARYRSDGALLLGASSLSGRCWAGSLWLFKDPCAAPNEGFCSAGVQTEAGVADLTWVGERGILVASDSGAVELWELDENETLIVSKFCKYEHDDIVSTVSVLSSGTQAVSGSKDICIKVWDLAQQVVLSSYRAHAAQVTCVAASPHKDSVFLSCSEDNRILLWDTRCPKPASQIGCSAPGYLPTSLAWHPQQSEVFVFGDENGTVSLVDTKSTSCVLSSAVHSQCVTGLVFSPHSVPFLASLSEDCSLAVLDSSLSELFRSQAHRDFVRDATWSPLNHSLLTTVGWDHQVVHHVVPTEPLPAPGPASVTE

For `O=C(NC[C@H](O)CN1CCc2ccccc2C1)c1cc(NC2COC2)ncn1` [EPZ015666], on PRMT5, the “inhibition of PRMT5” value is “potent and selective inhibitor”. Further, the “chromatin-associated SUMOylation on the p73 promoter” value in test [1] is reported as “increase”. The “interaction between E2F1 and V5 RNA” value in test [2] is “reduced”. Further, in test [3], the “interaction of snRNA with E2F1” value is reported as “absent”. In the test with p73 transcripts, the “levels of transcription (p73)” value is “reduced levels”. Moreover, the antiproliferative effects entry with Mantle Cell Lymphoma is recorded as “antiproliferative effects”. In addition, in the test on SENP7 RNA variants, the “level of the SENP7 V5 RNA variant” value is listed as “lower level; also recorded: down-regulates” and the “level of the other SENP7 RNA variants” value is “increased”. Further, the “association of HP1a with chromatin (p73 promoter)” value in test [4] is recorded as “increased association”.

The values are drawn from patent US20220118070A1, “CANCER THERAPY BY MODIFYING NEOANTIGEN EXPRESSION” (priority 2019, published 2022).
